Literature values in patent US8512794B2, “Oleate ester phytosterol compositions” (Perlman Consulting, LLC, priority 2010, dated 2013).

Test system: humans

## CC[C@H](CC[C@@H](C)[C@H]1CC[C@H]2[C@@H]3CC=C4C[C@@H](O)CC[C@]4(C)[C@H]3CC[C@]12C)C(C)C [beta sitosterol]
12-18 g per day in divided doses, males with atherosclerosis (Faquhar et al. 1956)
  lowering of serum cholesterol: 15-20%

## CC[C@H](CC[C@@H](C)[C@H]1CC[C@H]2[C@@H]3CC=C4C[C@@H](O)CC[C@]4(C)[C@H]3CC[C@]12C)C(C)C [sitosterol]
9-18 grams per day, coarse powdered form
  decrease of plasma cholesterol level: approximately 15%
